# Assay results: US8153676B2, “Use of compounds of formula A-R-Xo pharmaceutically acceptable salts thereof for producing a pharmaceutically preparations” (priority 2006, dated 2012)
# Tests used:
# male CD rats = test: Acute toxicity in male CD rats; assay type: in vivo
# Protocol: (§1) The acute toxicity of 12-imidazolyl-1-dodecanol (substance 1) and 12-(1)-imidazolyl-dodecane (substance 2) was tested in male CD rats. For 12-imidazolyl-1-dodecanol the result was an LD50 (14 days) of 1,000 mg/kg, b.w., p.o.; and for 12-(1)-imidazolyl-dodecane an LD50 (14 days) of 1,000 mg/kg b.w., p.o.
# [1] = test system: MRC-5 (lung fibroblast cells); test: LDH cytotoxicity test; assay type: cell-based; conditions: MRC-5, LDH cytotoxicity test
# Protocol: (§2) The half maximum cytotoxicity of 12-imidazolyl-1-dodecanol was determined with the LDH cytotoxicity test.
# Panc-1 (pancreas cells) [2] = test: LDH cytotoxicity test; assay type: cell-based; conditions: Panc-1, LDH cytotoxicity test
# Protocol: as §2
# HepG2 liver cancer cells = test: Migration test of HepG2 cells in collagen matrix; assay type: cell-based; conditions: for drop of migratory activity of the cells: control migratory activity 15%, 900 minutes; for Mean migratory activity: control 15%
# Protocol: Migration test conditions: HepG2 liver cancer cells were embedded in a collagen matrix. Thirty individual cells were inspected continuously by photographic means for 900 minutes. The average percentage of migrating cells was determined. Result 2: […]
# [3] = test system: SW620 (large intestine cells); test: Antineoplastic effect: cancer cell proliferation, cell count after four day incubation; assay type: cell-based; conditions: read-out: half maximum inhibitory concentration IC50 (cancer cell proliferation)
# Protocol: (§3) To this end, four cancer cell lines were seeded into “24 well plates” and allowed to grow for 24 hours. Then a wide array of the concentrations of the test substance 12-imidazolyl-1-dodecanol, dissolved in DMSO, was added to the cell suspensions. The DMSO concentration in the cell medium was 0.01%. […] In all cases a strong inhibition of cancer cell proliferation was determined.
# (§4) The following half maximum inhibitory concentrations—IC50 values—of 12-imidazolyl-1-dodecanol were determined: […]
# Panc-1 (pancreas cells) [4] = test: as above; assay type: cell-based; conditions: Panc-1, four day incubation, read-out: half maximum inhibitory concentration IC50 (cancer cell proliferation)
# Protocol: as §3, §4
# PC-3 (prostate cells) = test: as above; assay type: cell-based; conditions: PC-3, four day incubation, read-out: half maximum inhibitory concentration IC50 (cancer cell proliferation)
# Protocol: as §3, §4
# HepG2 (liver cells) = test: as above; assay type: cell-based; conditions: read-out: half maximum inhibitory concentration IC50 (cancer cell proliferation)
# Protocol: as §3, §4
# [5] = Acute toxicity in male CD rats; assay type: in vivo; conditions: male, CD, rat, in vivo, po
# Protocol: as §1
# cytochrome P450 [6] = test: In vitro inhibition of cytochrome P450 activity; assay type: biochemical; conditions: for in vitro inhibition of cytochrome P450 activity: compared with 10-undecinyl acid
# cytochrome P450 [7] = test: In vivo activity (cytochrome P450 inhibition)
# [8] = male, CD, rat, in vivo, po, 14 days
compound,measurement,setting,value
12-imidazolyl-1-dodecanol,First intolerance reaction,"male CD rats; male CD rats, p.o.","substance 1: 1,000 mg/kg b.w., p.o."
same,No effect at the dose rate,"male CD rats; male CD rats, p.o.","substance 1: 500 mg/kg b.w., p.o."
same,LD50 (14 days),"male CD rats; male CD rats, p.o., 14 days","1,000 mg/kg, b.w."
same,half maximum cytotoxicity,[1],500 µM
same,half maximum cytotoxicity,Panc-1 (pancreas cells) [2],500 µM
same,half maximum cytotoxicity (as restated in text),Panc-1 (pancreas cells) [2],500 μm
same,drop of migratory activity of the cells,HepG2 liver cancer cells; 1 μM in matrix medium,50%
same,drop of migratory activity of the cells,HepG2 liver cancer cells; 10 μM in matrix medium,75%
same,Mean migratory activity,HepG2 liver cancer cells; insulin and 12-imidazolyl-1-dodecanol (10 μl),15%
same,effect on insulin-induced increase in migratory activity,"HepG2 liver cancer cells; with insulin, after 450 min. observation time",blocks this increase completely
same,mean migratory activity below that of the control group,"HepG2 liver cancer cells; with insulin, after 900 minutes",13%
same,IC50,[3],100 nM
same,IC50,Panc-1 (pancreas cells) [4],50 nM
same,IC50,PC-3 (prostate cells),50 nM
same,IC50,HepG2 (liver cells),50 nM
insulin: insulin added to HepG2 cells to stimulate migratory activity [reference compound],Mean migratory activity,HepG2 liver cancer cells; insulin (100 ng/ml) alone,38%
same,increase in the migratory activity (times),HepG2 liver cancer cells; insulin versus control,2.5 times
CCCCCCCCCCCCn1ccnc1 [12-(1)-imidazolyl-dodecane],First intolerance reaction,male CD rats; [8],"substance 2: 500 mg/kg b.w., p.o."
same,No effect at the dose rate,male CD rats; [8],"substance 2: 250 mg/kg b.w., p.o."
same,LD50 at 14 days,[5],1000 mg/kg
C#CCCCCCCCCCCCCCCCC(=O)O [17-octadecinyl-1-acid],effectiveness in vitro,cytochrome P450 [6],especially effective in vitro
C#CCCCCCCCCCOS(=O)(=O)O [10-undecinyl-sulfate],in vivo activity compared with 10-undecinyl acid,cytochrome P450 [7],far superior
same,in vitro inhibition of cytochrome P450 activity,cytochrome P450 [6],comparably high inhibition
"C#CCCCCCCCCC(C)(C)C(=O)O [2,2-dimethyl-11-dodecinyl acid]",in vivo activity compared with 10-undecinyl acid,cytochrome P450 [7],far superior
same,in vitro inhibition of cytochrome P450 activity,cytochrome P450 [6],comparably high inhibition
